Patent US9476099B2 (TRUSTEES OF DARTMOUTH COLLEGE, priority 2012, dated 2016)

Tested on: gene promoters in NT2/D1-R1 control and DNMT3B knockdown cells
Test: Genome-wide promoter methylation analysis, HumanMethylation27 BeadChip (Table 15)
Assay type: cell-based, human
Settings: sh-ctrl + 5aza
Procedure: DNA methylation analysis was performed in samples in triplicate using the […] […] assay with the HumanMethylation27 BeadChip ([…]) and the BeadChip was scanned on the BeadArray Reader ([…]), according to the manufacturer's instructions. Raw data was normalized and analyzed with Genome Studio software ([…]). The HumanMethylation27 BeadChip assays 27,578 CpGs covering more than 14,000 genes, mostly from promoter regions. […] Hierarchical clustering was performed as stated above. HumanMethylation27 BeadChip data and gene expression microarray data were submitted to NCBI GEO.

Nc1ncn([C@H]2C[C@H](O)[C@@H](CO)O2)c(=O)n1 [5aza]
SERPING1 cg12783776 promoter methylation Mean: 0.601 | SFRS16 cg19317638 promoter methylation Mean: 0.560 | SFXN3 cg04880063 promoter methylation Mean: 0.170 | SH3BGRL2 cg03080985 promoter methylation Mean: 0.398 | SHH cg25167838 promoter methylation Mean: 0.175 | SKIP cg04072323 promoter methylation Mean: 0.432 | SLC30A2 cg05674944 promoter methylation Mean: 0.658 | SMCP cg09542291 promoter methylation Mean: 0.705 | SNX9 cg26845300 promoter methylation Mean: 0.985 | SOX17 cg21226224 promoter methylation Mean: 0.858 | SPRR1B cg24884084 promoter methylation Mean: 0.488 | SSH1 cg11747499 promoter methylation Mean: 0.529 | SSTR1 cg27590397 promoter methylation Mean: 1.209 | TAC1 cg07550362 promoter methylation Mean: 0.798 | TADA3L cg09279263 promoter methylation Mean: 0.445 | TERT cg02545192 promoter methylation Mean: 0.547 | TNFSF10 cg16555388 promoter methylation Mean: 0.687 | TNRC4 cg26093148 promoter methylation Mean: 0.866 | TNRC15 cg07230446 promoter methylation Mean: 0.425 | TRAF3 cg24165760 promoter methylation Mean: 0.878 | TRIM2 cg12793610 promoter methylation Mean: 0.815 | TRIM36 cg10693071 promoter methylation Mean: 0.822 | TRPM3 cg20555507 promoter methylation Mean: 0.413 | UNC5D cg00297600 promoter methylation Mean: 0.612 | WDR13 cg25053301 promoter methylation Mean: 0.317 | ZFHX1B cg15377518 promoter methylation Mean: 0.680 | ZNF222 cg09757277 promoter methylation Mean: 0.431 | cg07512517 promoter methylation Mean: 0.619 | Mean promoter methylation, ABCA3 cg02331561 (NT2/D1-R1 control cells): 0.189 | Mean promoter methylation, ABLIM3 cg05026186 (NT2/D1-R1 control cells): 0.365 | Mean promoter methylation, ACTL6B cg08572611 (NT2/D1-R1 control cells): 0.210 | Mean promoter methylation, ANKRD46 cg23737055 (NT2/D1-R1 control cells): 0.329 | Mean promoter methylation, ARNT2 cg17788682 (NT2/D1-R1 control cells): 0.212 | Mean promoter methylation, B4GALNT3 cg05769161 (NT2/D1-R1 control cells): 0.577 | Mean promoter methylation, BTBD1 cg16958189 (NT2/D1-R1 control cells): 0.392 | Mean promoter methylation, C1RL cg22593785 (NT2/D1-R1 control cells): 0.347 | Mean promoter methylation, C10orf10 cg17186163 (NT2/D1-R1 control cells): 0.371 | Mean promoter methylation, C10orf72 cg02569613 (NT2/D1-R1 control cells): 0.553 | Mean promoter methylation, C12orf34 cg01335367 (NT2/D1-R1 control cells): 0.987 | Mean promoter methylation, C17orf40 cg18042079 (NT2/D1-R1 control cells): 0.207 | Mean promoter methylation, C19orf30 cg07456645 (NT2/D1-R1 control cells): 0.552 | Mean promoter methylation, C20orf29 cg09158909 (NT2/D1-R1 control cells): 0.322 | Mean promoter methylation, C22orf9 cg11221513 (NT2/D1-R1 control cells): 0.402 | Mean promoter methylation, CACNA1G cg18454685 (NT2/D1-R1 control cells): 0.587 | Mean promoter methylation, CAMKK2 cg01369981 (NT2/D1-R1 control cells): 0.344 | Mean promoter methylation, CART cg23300372 (NT2/D1-R1 control cells): 0.445 | Mean promoter methylation, CCKBR cg13346411 (NT2/D1-R1 control cells): 0.411 | Mean promoter methylation, CDC42EP1 cg13951472 (NT2/D1-R1 control cells): 0.342 | Mean promoter methylation, CDKN2A cg10895543 (NT2/D1-R1 control cells): 0.249 | Mean promoter methylation, CHST8 cg24739326 (NT2/D1-R1 control cells): 0.660 | Mean promoter methylation, CPSF1 cg20326853 (NT2/D1-R1 control cells): 0.408 | Mean promoter methylation, CSMD1 cg22619018 (NT2/D1-R1 control cells): 0.365 | Mean promoter methylation, DCTN3 cg22579849 (NT2/D1-R1 control cells): 0.613 | Mean promoter methylation, DDX42 cg05797656 (NT2/D1-R1 control cells): 0.226 | Mean promoter methylation, DGKD cg25506396 (NT2/D1-R1 control cells): 0.238 | Mean promoter methylation, DGKI cg06277657 (NT2/D1-R1 control cells): 0.365 | Mean promoter methylation, DKK2 cg01404615 (NT2/D1-R1 control cells): 0.819 | Mean promoter methylation, DUSP8 cg02271621 (NT2/D1-R1 control cells): 0.296 | Mean promoter methylation, EHD2 cg12603043 (NT2/D1-R1 control cells): 0.398 | Mean promoter methylation, ELK1 cg21860846 (NT2/D1-R1 control cells): 0.343 | Mean promoter methylation, EMP3 cg01795122 (NT2/D1-R1 control cells): 0.187 | Mean promoter methylation, EYA4 cg01805282 (NT2/D1-R1 control cells): 0.360 | Mean promoter methylation, FAM70B cg15350194 (NT2/D1-R1 control cells): 0.396 | Mean promoter methylation, FAM73B cg00729541 (NT2/D1-R1 control cells): 0.365 | Mean promoter methylation, FCHSD2 cg17114257 (NT2/D1-R1 control cells): 0.423 | Mean promoter methylation, FLJ20273 cg01704534 (NT2/D1-R1 control cells): 0.410 | Mean promoter methylation, FLJ20273 cg15967525 (NT2/D1-R1 control cells): 0.759 | Mean promoter methylation, FLJ42486 cg03734874 (NT2/D1-R1 control cells): 0.711 | Mean promoter methylation, GAB3 cg12938998 (NT2/D1-R1 control cells): 0.347 | Mean promoter methylation, GALR1 cg04534765 (NT2/D1-R1 control cells): 0.440 | Mean promoter methylation, GCN5L2 cg08434547 (NT2/D1-R1 control cells): 0.555 | Mean promoter methylation, GNAS cg00943909 (NT2/D1-R1 control cells): 0.621 | Mean promoter methylation, HBQ1 cg07703401 (NT2/D1-R1 control cells): 0.587 | Mean promoter methylation, HCN1 cg11285003 (NT2/D1-R1 control cells): 0.369 | Mean promoter methylation, HES6 cg24127874 (NT2/D1-R1 control cells): 0.763 | Mean promoter methylation, HEYL cg25462291 (NT2/D1-R1 control cells): 0.576 | Mean promoter methylation, HRH3 cg08186362 (NT2/D1-R1 control cells): 0.666 | Mean promoter methylation, ICAM1 cg22874046 (NT2/D1-R1 control cells): 0.349 | Mean promoter methylation, ID2 cg23525180 (NT2/D1-R1 control cells): 0.576 | Mean promoter methylation, IGFBP3 cg04796162 (NT2/D1-R1 control cells): 0.501 | Mean promoter methylation, KATNB1 cg15153383 (NT2/D1-R1 control cells): 0.474 | Mean promoter methylation, KCNAB1 cg23873703 (NT2/D1-R1 control cells): 0.548 | Mean promoter methylation, KCNC2 cg18573383 (NT2/D1-R1 control cells): 0.277 | Mean promoter methylation, KIAA1822 cg02867079 (NT2/D1-R1 control cells): 0.842 | Mean promoter methylation, KIAA1840 cg06121469 (NT2/D1-R1 control cells): 0.365 | Mean promoter methylation, KRTCAP2 cg11278262 (NT2/D1-R1 control cells): 0.432 | Mean promoter methylation, LGALS1 cg00292662 (NT2/D1-R1 control cells): 0.493 | Mean promoter methylation, LGR6 cg23578193 (NT2/D1-R1 control cells): 0.423 | Mean promoter methylation, LOX cg06508445 (NT2/D1-R1 control cells): 0.190 | Mean promoter methylation, MAP6D1 cg03705396 (NT2/D1-R1 control cells): 0.522 | Mean promoter methylation, MGC9850 cg21097640 (NT2/D1-R1 control cells): 0.292 | Mean promoter methylation, MRPL38 cg11653266 (NT2/D1-R1 control cells): 0.224 | Mean promoter methylation, MT cg14078309 (NT2/D1-R1 control cells): 0.213 | Mean promoter methylation, MYOD1 cg18555440 (NT2/D1-R1 control cells): 0.561 | Mean promoter methylation, OGG1 cg25415932 (NT2/D1-R1 control cells): 0.526 | Mean promoter methylation, OR10J1 cg25076881 (NT2/D1-R1 control cells): 0.576 | Mean promoter methylation, OSTbeta cg16029760 (NT2/D1-R1 control cells): 0.344 | Mean promoter methylation, PABPC4 cg12585282 (NT2/D1-R1 control cells): 0.296 | Mean promoter methylation, PDE8B cg18089852 (NT2/D1-R1 control cells): 0.203 | Mean promoter methylation, PHLDA2 cg01263716 (NT2/D1-R1 control cells): 0.504 | Mean promoter methylation, PHLDA2 cg04720330 (NT2/D1-R1 control cells): 0.379 | Mean promoter methylation, PIB5PA cg18053607 (NT2/D1-R1 control cells): 0.403 | Mean promoter methylation, PLOD1 cg23286660 (NT2/D1-R1 control cells): 0.468 | Mean promoter methylation, PPCDC cg11632617 (NT2/D1-R1 control cells): 0.523 | Mean promoter methylation, PRDM12 cg09191327 (NT2/D1-R1 control cells): 0.457 | Mean promoter methylation, PRMT8 cg23739862 (NT2/D1-R1 control cells): 0.125 | Mean promoter methylation, PTPRO cg19402885 (NT2/D1-R1 control cells): 0.671 | Mean promoter methylation, PTPRO cg27196745 (NT2/D1-R1 control cells): 0.570 | Mean promoter methylation, R3HDML cg17692403 (NT2/D1-R1 control cells): 0.529 | Mean promoter methylation, RAB37 cg12448933 (NT2/D1-R1 control cells): 0.483 | Mean promoter methylation, RASA4 cg05749161 (NT2/D1-R1 control cells): 0.157 | Mean promoter methylation, RASL11A cg06611744 (NT2/D1-R1 control cells): 0.348 | Mean promoter methylation, SCAMP3 cg01745448 (NT2/D1-R1 control cells): 0.308 | Mean promoter methylation, SCARA5 cg10171125 (NT2/D1-R1 control cells): 0.408 | Mean promoter methylation, SEC14L2 cg14452140 (NT2/D1-R1 control cells): 0.705 | Mean promoter methylation, SH3BGRL3 cg03100146 (NT2/D1-R1 control cells): 0.661 | Mean promoter methylation, SHH cg00577464 (NT2/D1-R1 control cells): 0.433 | Mean promoter methylation, SLC6A5 cg20632573 (NT2/D1-R1 control cells): 0.291 | Mean promoter methylation, SLC25A22 cg02973416 (NT2/D1-R1 control cells): 0.702 | Mean promoter methylation, SLC35C2 cg02413850 (NT2/D1-R1 control cells): 0.254 | Mean promoter methylation, SLIT1 cg07143898 (NT2/D1-R1 control cells): 0.325 | Mean promoter methylation, SORCS3 cg16787600 (NT2/D1-R1 control cells): 0.786 | Mean promoter methylation, SOX15 cg01029592 (NT2/D1-R1 control cells): 0.276 | Mean promoter methylation, SOX15 cg13098960 (NT2/D1-R1 control cells): 0.472 | Mean promoter methylation, SOX17 cg02919422 (NT2/D1-R1 control cells): 0.617 | Mean promoter methylation, STXBP3 cg11666924 (NT2/D1-R1 control cells): 0.260 | Mean promoter methylation, SUSD2 cg23349242 (NT2/D1-R1 control cells): 0.631 | Mean promoter methylation, TBXA2R cg09998229 (NT2/D1-R1 control cells): 0.659 | Mean promoter methylation, THAP3 cg11688219 (NT2/D1-R1 control cells): 0.581 | Mean promoter methylation, TMEM25 cg20001829 (NT2/D1-R1 control cells): 0.424 | Mean promoter methylation, TMEM106C cg25884854 (NT2/D1-R1 control cells): 0.482 | Mean promoter methylation, TRAPPC1 cg01667702 (NT2/D1-R1 control cells): 0.471 | Mean promoter methylation, UBA52 cg24356797 (NT2/D1-R1 control cells): 0.192 | Mean promoter methylation, UNQ2446 cg10574499 (NT2/D1-R1 control cells): 0.619 | Mean promoter methylation, VPREB1 cg18441959 (NT2/D1-R1 control cells): 0.524 | Mean promoter methylation, ZGPAT cg04078896 (NT2/D1-R1 control cells): 0.308 | Mean promoter methylation, ZGPAT cg18611245 (NT2/D1-R1 control cells): 0.736 | Mean promoter methylation, ZNF585B cg03751813 (NT2/D1-R1 control cells): 0.392 | Mean promoter methylation, ZNF702 cg07559730 (NT2/D1-R1 control cells): 0.457
